Source: the supplement of paper PMC10307832

Legend:
Assay in all cases: relative viability (nuclei count vs DMSO), 5 days (fraction); higher = more cells survive
[1] = compound: C1CC2=C(C1)C=C(C=C2)OC3=NC(=C4C(=N3)N(C=N4)CC5=CC=C(C=C5)C6=CC=CC=C6)N[C@@H](CC7=CC=CC=C7)CO [QS11] + CC1(C)CCC(c2ccc(Cl)cc2)=C(CN2CCN(c3ccc(C(=O)NS(=O)(=O)c4ccc(N[C@H](CCN5CCOCC5)CSc5ccccc5)c(S(=O)(=O)C(F)(F)F)c4)cc3)CC2)C1 [Navitoclax] (partner 0.5 µM)
Method in brief: (§1)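 Lung cancer cell lines in 1536-well plates got either a single drug or a fixed anchor-drug dose together with five library-drug doses (not always all listed) in √10 steps, by pin tool, on the day after seeding. Nuclei were counted after 5 days, and relative viability is the treated-to-vehicle ratio of nuclei counts. Values are medians of duplicate plates.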

[2] = compound: C1CC2=C(C1)C=C(C=C2)OC3=NC(=C4C(=N3)N(C=N4)CC5=CC=C(C=C5)C6=CC=CC=C6)N[C@@H](CC7=CC=CC=C7)CO [QS11] + N=C(N)NC(=N)NCCc1ccccc1 [Phenformin] (partner 250 µM)
Method in brief: as §1

[3] = compound: CC1=C(C=C(C=C1)NC(=O)C2=CC(=CC=C2)C(C)(C)C#N)NC3=CC4=C(C=C3)N=CN(C4=O)C [AZ628] + CC(=O)Nc1cccc(-n2c(=O)n(C3CC3)c(=O)c3c(Nc4ccc(I)cc4F)n(C)c(=O)c(C)c32)c1 [Trametinib] (partner 0.02 µM)
Method in brief: as §1

[4] = compound: CC1=C(C=C(C=C1)NC(=O)C2=CC(=CC=C2)C(C)(C)C#N)NC3=CC4=C(C=C3)N=CN(C4=O)C [AZ628] + CCNC(=O)c1noc(-c2cc(C(C)C)c(O)cc2O)c1-c1ccc(CN2CCOCC2)cc1 [Luminespib] (partner 0.01 µM)
Method in brief: as §1

| Cell Line | relative viability ([1]; first compound 0.08 µM) | relative viability ([1]; first compound 0.253 µM) | relative viability ([1]; first compound 0.8 µM) | relative viability ([1]; first compound 2.53 µM) | relative viability ([1]; first compound 8 µM) | relative viability ([2]; first compound 0.08 µM) | relative viability ([2]; first compound 0.253 µM) | relative viability ([2]; first compound 0.8 µM) | relative viability ([2]; first compound 2.53 µM) | relative viability ([2]; first compound 8 µM) | relative viability ([3]; first compound 0.08 µM) | relative viability ([3]; first compound 0.253 µM) | relative viability ([3]; first compound 0.8 µM) | relative viability ([3]; first compound 2.53 µM) | relative viability ([3]; first compound 8 µM) | relative viability ([4]; first compound 0.08 µM) | relative viability ([4]; first compound 0.253 µM) | relative viability ([4]; first compound 0.8 µM) | relative viability ([4]; first compound 2.53 µM) | relative viability ([4]; first compound 8 µM) |
| --- | --- | --- | --- | --- | --- | --- | --- | --- | --- | --- | --- | --- | --- | --- | --- | --- | --- | --- | --- | --- |
| NCI-H1793 | 0.393 | 0.482 | 0.38 | 0.436 | 0.404 | 0.304 | 0.386 | 0.355 | 0.345 | 0.376 | 0.388 | 0.332 | 0.282 | 0.198 | 0.206 | 0.182 | 0.19 | 0.202 | 0.132 | 0.173 |
| HARA | 1.17 | 1.21 | – | 1.21 | 1.35 | 0.368 | 0.448 | – | 0.479 | 0.63 | 0.209 | 0.168 | 0.15 | 0.172 | 0.356 | 0.463 | 0.726 | 0.548 | 0.779 | 0.39 |
| NCI-H2347 | 0.598 | 0.826 | 0.716 | 0.743 | 0.839 | 0.374 | 0.395 | 0.362 | 0.364 | 0.637 | 0.233 | 0.277 | 0.261 | 0.256 | 0.27 | 0.287 | 0.239 | 0.301 | 0.255 | 0.218 |
| ABC-1 | – | – | – | – | – | 0.238 | 0.259 | 0.281 | 0.292 | 0.268 | – | – | – | – | – | 0.717 | 0.699 | 0.929 | 0.838 | 0.536 |
| NCI-H2342 | – | – | – | – | – | 0.632 | 0.62 | 0.638 | 0.599 | 0.615 | 0.839 | 0.878 | 0.907 | 0.752 | 0.978 | 0.763 | 0.865 | 0.736 | 0.821 | 0.825 |
| NCI-H2126 | 0.867 | 0.796 | 0.67 | 0.823 | 0.62 | 0.542 | 0.505 | 0.552 | 0.561 | 0.541 | 0.559 | 0.512 | 0.498 | 0.562 | 0.481 | 1 | 0.902 | 0.968 | 0.933 | 0.97 |
| HOP-62 | 1.07 | 1.15 | 1.04 | 0.785 | 1.22 | 0.677 | 0.743 | 0.657 | 0.497 | 0.669 | 0.197 | 0.155 | 0.15 | 0.15 | 0.188 | 0.977 | 0.865 | 0.759 | 0.826 | 0.475 |
| NCI-H2085 | 1.18 | 1.17 | 1.08 | 1.29 | 1.41 | 0.707 | 0.681 | 0.671 | 0.726 | 0.844 | 0.502 | 0.479 | 0.628 | 0.601 | 0.481 | 0.538 | 0.41 | 0.468 | 0.503 | 0.33 |
| NCI-H1944 | 1.06 | 1.1 | – | 1.07 | 0.973 | 0.202 | 0.204 | – | 0.196 | 0.145 | 0.321 | 0.305 | 0.254 | 0.295 | 0.33 | 0.651 | 0.66 | 0.553 | 0.546 | 0.575 |
| EMC-BAC-2 | 1.14 | 1.28 | 0.896 | 1.12 | 0.654 | 0.519 | 0.579 | 0.53 | 0.463 | 0.44 | 0.588 | 0.442 | 0.416 | 0.365 | 0.43 | 1.22 | 1.03 | 1.16 | 1.07 | 1.12 |
| NCI-H2228 | 0.852 | 1.1 | 0.483 | 0.756 | 1.29 | 0.259 | 0.325 | 0.407 | 0.479 | 0.452 | 0.34 | 0.316 | 0.263 | 0.129 | 0.12 | 0.119 | 0.133 | 0.18 | 0.195 | 0.14 |
| A-427 | 0.992 | 1.02 | – | 1.02 | 1.01 | 0.286 | 0.358 | – | 0.34 | 0.363 | 0.462 | 0.407 | 0.353 | 0.395 | 0.407 | 1.08 | 0.805 | 0.76 | 0.775 | 0.555 |
| EPLC-272H | 1.13 | 1.17 | 1.15 | 1.08 | 1.36 | – | 0.327 | 0.312 | 0.287 | 0.304 | 0.26 | 0.207 | 0.222 | 0.189 | 0.17 | 0.252 | 0.2 | 0.527 | 0.171 | 0.235 |
| A549 | 1.2 | 1.37 | 1.21 | 1.06 | 0.808 | 0.115 | 0.256 | 0.154 | 0.125 | 0.197 | – | – | – | – | – | – | – | – | – | – |
| NCI-H358 | – | – | – | – | – | 0.297 | 0.378 | 0.412 | 0.5 | 0.507 | 0.113 | 0.112 | 0.104 | 0.102 | 0.134 | 0.285 | 0.279 | 0.273 | 0.311 | 0.167 |
